Laboratory results from ChEMBL document CHEMBL5120776, “Asymmetric Total Synthesis of Griseofamine B and Its Three Stereoisomers” (2022).

How the values were obtained:
Type in all cases: functional
Staphylococcus aureus [1] = assay: Antibacterial activity against methicillin-resistant Staphylococcus aureus ATCC 33591 assessed as inhibition of bacterial growth incubated for 18 hrs by two-fold dilution assay
Enterococcus faecalis [2] = assay: Antibacterial activity against Enterococcus faecalis ATCC 29212 assessed as inhibition of bacterial growth incubated for 18 hrs by two-fold dilution assay
[3] = system: Staphylococcus epidermidis; assay: Antibacterial activity against methicillin-resistant Staphylococcus epidermidis clinical isolate 16-5 assessed as inhibition of bacterial growth incubated for 18 hrs by two-fold dilution assay
Staphylococcus aureus [4] = assay: Antibacterial activity against methicillin-resistant Staphylococcus aureus […] assessed as inhibition of bacterial growth incubated for 18 hrs by two-fold dilution assay
Enterococcus faecium [5] = assay: Antibacterial activity against vancomycin-resistant Enterococcus faecium ATCC 700221 assessed as inhibition of bacterial growth incubated for 18 hrs by two-fold dilution assay
Staphylococcus aureus [6] = assay: Antibacterial activity against Staphylococcus aureus […] assessed as inhibition of bacterial growth incubated for 18 hrs by two-fold dilution assay
Enterococcus faecalis [7] = assay: Antibacterial activity against vancomycin-resistant Enterococcus faecalis ATCC 51299 assessed as inhibition of bacterial growth incubated for 18 hrs by two-fold dilution assay
Enterococcus faecium [8] = assay: Antibacterial activity against Enterococcus faecium clinical isolate 16-5 assessed as inhibition of bacterial growth incubated for 18 hrs by two-fold dilution assay
Staphylococcus aureus [9] = assay: Antibacterial activity against Staphylococcus aureus ATCC 29213 assessed as inhibition of bacterial growth incubated for 18 hrs by two-fold dilution assay
Escherichia coli = assay: Antibacterial activity against Escherichia coli ATCC 25922 assessed as inhibition of bacterial growth incubated for 18 hrs by two-fold dilution assay
[10] = system: Staphylococcus epidermidis; assay: Antibacterial activity against Staphylococcus epidermidis ATCC 12228 assessed as inhibition of bacterial growth incubated for 18 hrs by two-fold dilution assay

Measured: MIC

CC(C)=C[C@H]1c2cccc3[nH]cc(c23)C[C@H]2C(=O)/C(=C(\C)O)C(=O)N21
≥ 64 µg/mL: Staphylococcus aureus [1] | Enterococcus faecalis [2] | [3] | Staphylococcus aureus [4] | Enterococcus faecium [5] | Staphylococcus aureus [6] | Enterococcus faecalis [7] | Enterococcus faecium [8] | Staphylococcus aureus [9] | Escherichia coli | [10]

CC(C)=C[C@@H]1c2cccc3[nH]cc(c23)C[C@@H]2C(=O)/C(=C(\C)O)C(=O)N21
≥ 64 µg/mL: Staphylococcus aureus [1] | Enterococcus faecalis [2] | [3] | Staphylococcus aureus [4] | Enterococcus faecium [5] | Staphylococcus aureus [6] | Enterococcus faecalis [7] | Enterococcus faecium [8] | Staphylococcus aureus [9] | Escherichia coli | [10]

CC(C)=C[C@H]1c2cccc3[nH]cc(c23)C[C@@H]2C(=O)/C(=C(\C)O)C(=O)N21
≥ 64 µg/mL: Staphylococcus aureus [1] | Enterococcus faecalis [2] | [3] | Staphylococcus aureus [4] | Enterococcus faecium [5] | Staphylococcus aureus [6] | Enterococcus faecalis [7] | Enterococcus faecium [8] | Staphylococcus aureus [9] | Escherichia coli | [10]

CC(C)=C[C@@H]1c2cccc3[nH]cc(c23)C[C@H]2C(=O)/C(=C(\C)O)C(=O)N12
≥ 64 µg/mL: Staphylococcus aureus [1] | Enterococcus faecalis [2] | [3] | Staphylococcus aureus [4] | Enterococcus faecium [5] | Staphylococcus aureus [6] | Enterococcus faecalis [7] | Enterococcus faecium [8] | Staphylococcus aureus [9] | Escherichia coli | [10]
